The values below come from patent US5166166A, “3-dicyclohexylaminosydnone imines, process for their preparation and their use” (Cassella Aktiengesellschaft, priority 1990, dated 1992).

This assay concerns spiral strips of the pulmonary artery of the guinea-pig. Nature of the assay: relaxing action on potassium-depolarised, CaCl2-contracted spiral strips of the pulmonary artery (modified method of Godfraind and Kaba and of Schuman et al.). Type of assay: cell-based. The conditions noted are these: for IC50: Cavia porcellus, guinea-pig pulmonary artery strips, 40 mmol/l potassium, contraction by 0.5 mmol/l CaCl2, cumulative addition, average of 4 to 6 vessel strips, read-out: IC50 (concentration of the test substance which inhibits the contraction by 50%); for Duration of action: time needed after addition of the test substance until the starting value is obtained again. The protocol: The pharmacological action of the compounds of the formula I was determined by a modified method of Godfraind and Kaba (Arch. Int. Pharmacodyn. Ther. 196, (Suppl) 35 to 49, 1972) and of Schuman et al. (Naunyn-Schmiedeberg's Arch. Pharmacol. 289, 409 to 418, 1975). In this connection, spiral strips of the pulmonary artery of the guinea-pig are depolarised with 40 mmol/l of potassium after equilibration in calcium-free Tyrode solution. An addition of 0.5 mmol/l of CaCl2 then induces a contraction. The relaxing action of the test substance is determined by cumulative addition in 1/2 log 10 stepped concentrations. From the concentration-effect curve (abscissa: -log mol/l of test substance, ordinate: % inhibition of the maximum contraction, average value of 4 to 6 vessel strips), the concentration of the test substance is determined which inhibits the contraction by 50% (=IC50, mol/l). The duration of action of the test substance is given by the time which is needed after the addition of the test substance until the starting value is obtained again.

`Cl.N=c1c[n+](N(C2CCCCC2)C2CCCCC2)[n-]o1` [3-Dicyclohexylaminosydnone imine hydrochloride]: the IC50 stood at 400 nM and the Duration of action was 270 min.

For `CCOC(=O)[N-]c1cn(N2CCOCC2)n[o+]1` [Molsidomine, NEthoxycarbonyl-3-morpholinosydnone imine, reference compound], the IC50 is 300000 nM and the Duration of action worked out at 120 min.

As for `CC(C)(C)C(=O)[N-]c1c[n+](N(C2CCCCC2)C2CCCCC2)no1` [N-Pivaloyl-3-dicyclohexylaminosydnone imine], the IC50 is 5000 nM and the Duration of action is 310 min.

`COc1ccc(C(=O)[N-]c2c[n+](N(C3CCCCC3)C3CCCCC3)no2)cc1` [N-p-Anisoyl-3-dicyclohexylaminosydnone imine]: the IC50 was found to be 3000 nM and the Duration of action is 300 min.

Regarding `Cl.N=c1c[n+](N2CCOCC2)[n-]o1` [SIN-1, 3Morpholinosydnone imine hydrochloride, reference compound], the IC50 worked out at 1000 nM and the Duration of action came to 90 min.
